Measurements reported in publication PMC3751577, “Three-stage biochemical selection: cloning of prototype class IIS/IIC/IIG restriction endonuclease-methyltransferase TsoI from the thermophile Thermus scotoductus” (BMC Molecular Biology, 2013).

Legend:
TsoI [1] = molecular target: T1, TsoI (Thermus scotoductus, UniProt T1RQY5); assay: DNA cleavage assay on lambda DNA, agarose gel; type: biochemical; conditions: activator, putative allosteric; weak stimulation of REase; 50 uM effector; 10 mM MgCl2, pH 7.5, 55°C, 30 min
T1 construct: gene tsoIRM; native (wt) full-length enzyme purified to homogeneity from T. scotoductus; monomer
T1 sequence (T1RQY5 1-1116): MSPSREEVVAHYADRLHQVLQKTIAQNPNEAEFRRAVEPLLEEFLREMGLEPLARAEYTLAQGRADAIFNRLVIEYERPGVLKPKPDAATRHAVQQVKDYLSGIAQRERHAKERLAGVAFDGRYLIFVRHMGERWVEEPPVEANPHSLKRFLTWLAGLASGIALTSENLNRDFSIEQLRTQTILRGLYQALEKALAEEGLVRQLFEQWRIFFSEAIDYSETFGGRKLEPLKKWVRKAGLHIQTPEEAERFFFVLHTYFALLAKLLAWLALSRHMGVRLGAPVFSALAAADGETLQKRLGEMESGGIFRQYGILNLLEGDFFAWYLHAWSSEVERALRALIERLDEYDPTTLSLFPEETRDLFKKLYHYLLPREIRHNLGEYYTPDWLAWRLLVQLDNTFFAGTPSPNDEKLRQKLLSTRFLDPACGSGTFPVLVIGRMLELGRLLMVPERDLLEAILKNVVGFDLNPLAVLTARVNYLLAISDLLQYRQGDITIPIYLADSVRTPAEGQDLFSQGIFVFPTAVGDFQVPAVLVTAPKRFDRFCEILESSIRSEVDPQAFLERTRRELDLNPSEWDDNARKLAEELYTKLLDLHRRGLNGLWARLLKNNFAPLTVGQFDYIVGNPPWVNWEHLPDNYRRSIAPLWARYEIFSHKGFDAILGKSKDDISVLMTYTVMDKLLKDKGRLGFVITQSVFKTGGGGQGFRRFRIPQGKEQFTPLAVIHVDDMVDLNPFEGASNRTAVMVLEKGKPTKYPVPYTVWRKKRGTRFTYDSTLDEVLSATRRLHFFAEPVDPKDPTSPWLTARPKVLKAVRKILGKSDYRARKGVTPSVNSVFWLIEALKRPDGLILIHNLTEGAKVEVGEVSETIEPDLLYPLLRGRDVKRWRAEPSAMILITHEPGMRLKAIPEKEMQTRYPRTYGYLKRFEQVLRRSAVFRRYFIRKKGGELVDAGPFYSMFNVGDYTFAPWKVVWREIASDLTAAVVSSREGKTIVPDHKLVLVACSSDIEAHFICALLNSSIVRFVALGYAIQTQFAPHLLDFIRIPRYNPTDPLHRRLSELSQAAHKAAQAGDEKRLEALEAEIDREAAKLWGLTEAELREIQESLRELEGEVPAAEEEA

TsoI [2] = molecular target: T1, TsoI; assay: DNA cleavage assays on lambda DNA and single-site PCR substrate, agarose gel; type: biochemical; conditions: activator, putative allosteric; weak stimulation of REase; 50 uM effector; 10 mM MgCl2, pH 7.5, 55°C, 30 min or 16 h

SMILES | DNA cleavage assay on lambda DNA, agarose gel (TsoI [1]) | DNA cleavage assays on lambda DNA and single-site PCR substrate, agarose gel (TsoI [2])
Nc1ncnc2c1ncn2[C@@H]1O[C@H](C[C@@H](N)CC[C@H](N)C(=O)O)[C@@H](O)[C@H]1O [SIN] | activation of REase function by SAM, SIN and SAH is weak, but detectable | 
C[S+](CC[C@H](N)C(=O)O)C[C@H]1O[C@@H](n2cnc3c(N)ncnc32)[C@H](O)[C@@H]1O (stereo partly drawn) [SAM] |  | activation of REase function by SAM, SIN and SAH is weak, but detectable
Nc1ncnc2c1ncn2[C@@H]1O[C@H](CSCC[C@H](N)C(=O)O)[C@@H](O)[C@H]1O [SAH] | activation of REase function by SAM, SIN and SAH is weak, but detectable | 
